Common to all, as to assay: relative viability (nuclei count vs DMSO), 5 days (fraction); higher = more cells survive
Compound in experiment [1]: CO[C@H]1C[C@@H]2CC[C@@H](C)[C@@](O)(O2)C(=O)C(=O)N2CCCC[C@H]2C(=O)O[C@H]([C@H](C)C[C@@H]2CC[C@@H](OCCO)[C@H](OC)C2)CC(=O)[C@H](C)/C=C(\C)[C@@H](O)[C@@H](OC)C(=O)[C@H](C)C[C@H](C)/C=C/C=C/C=C/1C [Everolimus] + COc1cccc2cc(-c3nc([C@H]4CC[C@H](C(=O)O)CC4)n4ncnc(N)c34)[nH]c12 [OSI-027] (partner 0.5 µM)
A digest of the protocol: (§1)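 Nuclei were stained with Hoechst during a one-step fixation (final 0.05% Triton X-100, 1% formaldehyde, 1 ug/ml Hoechst) carried out 5 days after dosing, then counted on 4× images. The cells, lung cancer lines in 1536-well plates, had been dosed by pin tool the day after seeding with one drug alone or a fixed anchor-drug dose plus five library-drug doses (not always all listed) in √10 steps. Relative viability is the nuclei count in treated wells divided by that in vehicle wells, and each value is the median of duplicate plates.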

Compound in experiment [2]: CO[C@H]1C[C@@H]2CC[C@@H](C)[C@@](O)(O2)C(=O)C(=O)N2CCCC[C@H]2C(=O)O[C@H]([C@H](C)C[C@@H]2CC[C@@H](OCCO)[C@H](OC)C2)CC(=O)[C@H](C)/C=C(\C)[C@@H](O)[C@@H](OC)C(=O)[C@H](C)C[C@H](C)/C=C/C=C/C=C/1C [Everolimus] + C[C@@H](Oc1cc(-c2cnn(C3CCNCC3)c2)cnc1N)c1c(Cl)ccc(F)c1Cl [Crizotinib] (partner 1 µM)
A digest of the protocol:
as §1

Compound in experiment [3]: CO[C@H]1C[C@@H]2CC[C@@H](C)[C@@](O)(O2)C(=O)C(=O)N2CCCC[C@H]2C(=O)O[C@H]([C@H](C)C[C@@H]2CC[C@@H](OCCO)[C@H](OC)C2)CC(=O)[C@H](C)/C=C(\C)[C@@H](O)[C@@H](OC)C(=O)[C@H](C)C[C@H](C)/C=C/C=C/C=C/1C [Everolimus] + C[C@]1(O)C[C@@H](c2nc(-c3ccc4ccc(-c5ccccc5)nc4c3)c3c(N)nccn32)C1 [Linsitinib] (partner 1 µM)
Summed up: as §1

Compound in experiment [4]: CO[C@H]1C[C@@H]2CC[C@@H](C)[C@@](O)(O2)C(=O)C(=O)N2CCCC[C@H]2C(=O)O[C@H]([C@H](C)C[C@@H]2CC[C@@H](OCCO)[C@H](OC)C2)CC(=O)[C@H](C)/C=C(\C)[C@@H](O)[C@@H](OC)C(=O)[C@H](C)C[C@H](C)/C=C/C=C/C=C/1C [Everolimus] + Cc1cc(Nc2cc(N3CCN(C)CC3)nc(Sc3ccc(NC(=O)C4CC4)cc3)n2)n[nH]1 [Tozasertib] (partner 0.1 µM)
Summed up:
as §1

In the case of NCI-H2085, the relative viability worked out at 0.457 in experiment [1] (first compound 0.01 µM); 0.454 in experiment [1] (first compound 0.03162 µM); 0.257 in experiment [1] (first compound 0.1 µM); 0.476 in experiment [1] (first compound 0.3162 µM); 0.438 in experiment [1] (first compound 1 µM); 0.775 in experiment [2] (first compound 0.01 µM). Also, the relative viability in experiment [2] (first compound 0.03162 µM) came to 0.719; in experiment [2] (first compound 0.1 µM) it was 0.64; in experiment [2] (first compound 0.3162 µM), 0.655; in experiment [2] (first compound 1 µM), 0.496; in experiment [3] (first compound 0.01 µM), 0.735; in experiment [3] (first compound 0.03162 µM), 0.522. In addition, the relative viability in experiment [3] (first compound 0.1 µM) was 0.519; in experiment [3] (first compound 0.3162 µM), 0.509; in experiment [3] (first compound 1 µM), 0.484; in experiment [4] (first compound 0.01 µM), 0.81; in experiment [4] (first compound 0.03162 µM), 0.723; in experiment [4] (first compound 0.1 µM), 0.602. Moreover, the relative viability in experiment [4] (first compound 0.3162 µM) is 0.656; in experiment [4] (first compound 1 µM) it was 0.557.

Consider NCI-H1395, for which the relative viability was determined as 0.596 in experiment [1] (first compound 0.01 µM); 0.555 in experiment [1] (first compound 0.03162 µM); 0.544 in experiment [1] (first compound 0.1 µM); 0.482 in experiment [1] (first compound 0.3162 µM); 0.54 in experiment [1] (first compound 1 µM); 1 in experiment [3] (first compound 0.01 µM). In addition, the relative viability in experiment [3] (first compound 0.03162 µM) was determined as 0.864; in experiment [3] (first compound 0.1 µM), 0.766; in experiment [3] (first compound 0.3162 µM), 0.731; in experiment [3] (first compound 1 µM), 0.787; in experiment [4] (first compound 0.01 µM) it was 0.56; in experiment [4] (first compound 0.03162 µM), 0.56. Moreover, the values for the relative viability in experiment [4] (first compound 0.1 µM), in experiment [4] (first compound 0.3162 µM) and in experiment [4] (first compound 1 µM) were 0.493, 0.523 and 0.507, respectively.

For the cell line SW 900, the relative viability in experiment [1] (first compound 0.01 µM) was found to be 0.317; in experiment [1] (first compound 0.03162 µM) it was 0.273; in experiment [1] (first compound 0.1 µM), 0.25; in experiment [1] (first compound 0.3162 µM) it was 0.35; in experiment [1] (first compound 1 µM), 0.244; in experiment [4] (first compound 0.01 µM) it was 0.332. For the same cell line, the relative viability in experiment [4] (first compound 0.03162 µM) is 0.462; in experiment [4] (first compound 0.1 µM), 0.442; in experiment [4] (first compound 0.3162 µM), 0.404; in experiment [4] (first compound 1 µM), 0.448.

Take NCI-H460: the relative viability worked out at 0.389 in experiment [1] (first compound 0.01 µM); 0.503 in experiment [1] (first compound 0.03162 µM); 0.304 in experiment [1] (first compound 0.1 µM); 0.314 in experiment [1] (first compound 0.3162 µM); 0.333 in experiment [1] (first compound 1 µM); 0.783 in experiment [2] (first compound 0.01 µM). In addition, the relative viability in experiment [2] (first compound 0.03162 µM) is 0.738; in experiment [2] (first compound 0.1 µM) it was 0.808; in experiment [2] (first compound 0.3162 µM) it was 0.845; in experiment [2] (first compound 1 µM), 0.872; in experiment [3] (first compound 0.01 µM), 0.42; in experiment [3] (first compound 0.03162 µM), 0.45. Also, the relative viability in experiment [3] (first compound 0.1 µM) stood at 0.365; in experiment [3] (first compound 0.3162 µM), 0.301; in experiment [3] (first compound 1 µM), 0.381; in experiment [4] (first compound 0.01 µM) it was 0.719; in experiment [4] (first compound 0.03162 µM), 0.698; in experiment [4] (first compound 0.1 µM), 0.603. Further, the relative viability in experiment [4] (first compound 0.3162 µM) was found to be 0.538; in experiment [4] (first compound 1 µM), 0.569.

On to A549, for which the relative viability in experiment [2] (first compound 0.01 µM) came to 0.416; in experiment [2] (first compound 0.03162 µM), 0.415; in experiment [2] (first compound 0.1 µM) it was 0.306; in experiment [2] (first compound 0.3162 µM), 0.401; in experiment [2] (first compound 1 µM), 0.369; in experiment [3] (first compound 0.01 µM) it was 0.484. Moreover, the relative viability amounted to 0.308 in experiment [3] (first compound 0.03162 µM), 0.231 in experiment [3] (first compound 0.1 µM), 0.241 in experiment [3] (first compound 0.3162 µM) and 0.223 in experiment [3] (first compound 1 µM).

On to IA-LM, for which the relative viability worked out at 0.418 in experiment [2] (first compound 0.01 µM); 0.424 in experiment [2] (first compound 0.03162 µM); 0.256 in experiment [2] (first compound 0.1 µM); 0.478 in experiment [2] (first compound 0.3162 µM); 0.441 in experiment [2] (first compound 1 µM); 0.296 in experiment [3] (first compound 0.01 µM). For the same cell line, the relative viability in experiment [3] (first compound 0.03162 µM) is 0.306; in experiment [3] (first compound 0.1 µM), 0.243; in experiment [3] (first compound 0.3162 µM), 0.267; in experiment [3] (first compound 1 µM), 0.282.

As for EKVX, the relative viability in experiment [1] (first compound 0.01 µM) was determined as 0.518; in experiment [1] (first compound 0.03162 µM) it was 0.427; in experiment [1] (first compound 0.1 µM) it was 0.289; in experiment [1] (first compound 0.3162 µM) it was 0.358; in experiment [1] (first compound 1 µM), 0.43; in experiment [2] (first compound 0.01 µM), 0.718. Further, the relative viability in experiment [2] (first compound 0.03162 µM) is 0.656; in experiment [2] (first compound 0.1 µM), 0.684; in experiment [2] (first compound 0.3162 µM), 0.721; in experiment [2] (first compound 1 µM), 0.75; in experiment [3] (first compound 0.01 µM) it was 0.863; in experiment [3] (first compound 0.03162 µM), 0.728. Besides, the relative viability in experiment [3] (first compound 0.1 µM) turned out to be 0.63; in experiment [3] (first compound 0.3162 µM), 0.402; in experiment [3] (first compound 1 µM), 0.568; in experiment [4] (first compound 0.01 µM), 0.327; in experiment [4] (first compound 0.03162 µM), 0.333; in experiment [4] (first compound 0.1 µM), 0.214. Besides, the relative viability in experiment [4] (first compound 0.3162 µM) was 0.257; in experiment [4] (first compound 1 µM), 0.259.

On to ChaGo-K-1, for which the relative viability is 0.467 in experiment [1] (first compound 0.01 µM); 0.445 in experiment [1] (first compound 0.03162 µM); 0.443 in experiment [1] (first compound 0.1 µM); 0.504 in experiment [1] (first compound 0.3162 µM); 0.495 in experiment [1] (first compound 1 µM); 1.04 in experiment [2] (first compound 0.01 µM). Further, the relative viability was 1.2 in experiment [2] (first compound 0.03162 µM); 1.07 in experiment [2] (first compound 0.1 µM); 1.02 in experiment [2] (first compound 0.3162 µM); 1.14 in experiment [2] (first compound 1 µM); 0.226 in experiment [4] (first compound 0.01 µM); 0.208 in experiment [4] (first compound 0.03162 µM). For the same cell line, the relative viability in experiment [4] (first compound 0.1 µM) came out at 0.215; in experiment [4] (first compound 0.3162 µM), 0.215; in experiment [4] (first compound 1 µM) it was 0.238.

Turning to NCI-H522, the relative viability in experiment [1] (first compound 0.01 µM) is 0.658; in experiment [1] (first compound 0.03162 µM), 0.501; in experiment [1] (first compound 0.1 µM), 0.617; in experiment [1] (first compound 0.3162 µM), 0.621; in experiment [1] (first compound 1 µM) it was 0.591; in experiment [4] (first compound 0.01 µM), 0.584. Also, the relative viability in experiment [4] (first compound 0.03162 µM) turned out to be 0.432; in experiment [4] (first compound 0.1 µM) it was 0.409; in experiment [4] (first compound 0.3162 µM), 0.505; in experiment [4] (first compound 1 µM) it was 0.458.

Turning to NCI-H1755, the relative viability was 0.655 in experiment [1] (first compound 0.01 µM); 0.63 in experiment [1] (first compound 0.03162 µM); 0.573 in experiment [1] (first compound 0.1 µM); 0.647 in experiment [1] (first compound 0.3162 µM); 0.593 in experiment [1] (first compound 1 µM); 0.777 in experiment [2] (first compound 0.01 µM). Also, the relative viability in experiment [2] (first compound 0.03162 µM) came to 0.715; in experiment [2] (first compound 0.1 µM) it was 0.679; in experiment [2] (first compound 0.3162 µM), 0.6; in experiment [2] (first compound 1 µM), 0.554; in experiment [3] (first compound 0.01 µM), 0.883; in experiment [3] (first compound 0.03162 µM), 0.717. Also, the relative viability in experiment [3] (first compound 0.1 µM) was determined as 0.665; in experiment [3] (first compound 0.3162 µM), 0.727; in experiment [3] (first compound 1 µM) it was 0.658; in experiment [4] (first compound 0.01 µM), 0.594; in experiment [4] (first compound 0.03162 µM), 0.488; in experiment [4] (first compound 0.1 µM) it was 0.538. In addition, the values for the relative viability in experiment [4] (first compound 0.3162 µM) and in experiment [4] (first compound 1 µM) were 0.525 and 0.425, respectively.

The values above are taken from the supplement of paper PMC10307832.
